Measured values published in patent EP1202975B1, “SUBSTITUTED POLYCYCLIC ARYL AND HETEROARYL PYRAZINONES USEFUL FOR SELECTIVE INHIBITION OF THE COAGULATION CASCADE” (Pharmacia Corporation, priority 1999, dated 2000).
Like-named read-outs stand apart in the source and are kept apart here.

Experiments:
[1] = target: T1, TF-VIIa (Homo sapiens, UniProt P08709); test: TF-VIIa Assay; format: biochemical
T1 construct: 2nM recombinant human factor VIIa; purchased American Diagnostica, Greenwich CT; host or cells: soluble TF made in house in E. coli
T1 sequence (P08709 213-466 limits assumed): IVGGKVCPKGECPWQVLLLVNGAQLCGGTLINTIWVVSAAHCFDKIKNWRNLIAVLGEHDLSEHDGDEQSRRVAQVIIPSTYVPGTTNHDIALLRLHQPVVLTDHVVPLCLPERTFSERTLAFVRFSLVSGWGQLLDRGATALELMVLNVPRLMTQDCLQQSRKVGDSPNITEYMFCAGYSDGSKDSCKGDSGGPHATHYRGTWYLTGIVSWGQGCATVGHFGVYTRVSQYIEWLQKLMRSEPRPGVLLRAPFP
T1 sequence (P08709 61-212 limits assumed): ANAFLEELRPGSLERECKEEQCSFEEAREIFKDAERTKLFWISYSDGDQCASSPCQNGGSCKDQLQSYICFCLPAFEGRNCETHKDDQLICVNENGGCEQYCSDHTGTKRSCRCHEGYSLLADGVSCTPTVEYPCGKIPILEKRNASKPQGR
T1 sequence (P13726 33-251 partner limits assumed): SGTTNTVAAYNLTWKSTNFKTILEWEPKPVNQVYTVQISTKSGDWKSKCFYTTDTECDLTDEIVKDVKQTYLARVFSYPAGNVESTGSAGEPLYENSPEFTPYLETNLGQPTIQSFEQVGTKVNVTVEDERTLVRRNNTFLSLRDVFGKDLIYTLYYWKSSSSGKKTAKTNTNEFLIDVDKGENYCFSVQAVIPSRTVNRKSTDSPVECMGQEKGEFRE

[2] = target: Human factor Xa (Homo sapiens, UniProt P00742); test: Xa Assay; conditions: for IC50 or % Inhibition Factor Xa (30 µM): % inhibition at 30 µM
Human factor Xa, sequence (P00742 235-488 limits assumed): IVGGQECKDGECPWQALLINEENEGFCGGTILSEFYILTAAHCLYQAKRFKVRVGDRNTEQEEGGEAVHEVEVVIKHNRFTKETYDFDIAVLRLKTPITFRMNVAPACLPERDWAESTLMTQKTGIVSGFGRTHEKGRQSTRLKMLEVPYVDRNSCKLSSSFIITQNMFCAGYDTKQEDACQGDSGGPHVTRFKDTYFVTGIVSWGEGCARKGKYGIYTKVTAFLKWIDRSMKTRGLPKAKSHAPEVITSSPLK
Human factor Xa, sequence (P00742 41-179 limits assumed): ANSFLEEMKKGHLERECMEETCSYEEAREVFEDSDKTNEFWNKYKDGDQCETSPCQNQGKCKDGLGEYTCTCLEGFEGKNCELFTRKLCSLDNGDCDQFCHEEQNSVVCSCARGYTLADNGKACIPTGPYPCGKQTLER

[3] = read-out: IC50 or % Inhibition TF-VIIa (30 µM); cells given as a plain number (IC50)
[4] = read-out: IC50 or % Inhibition Factor Xa (30 µM), cells given as a plain number (IC50)
[5] = cells given as a plain number (IC50); read-out: IC50 or % Inhibition TF-VIIa (30 µM)

SMILES | IC50 [1, 3] [µM] | IC50 [2, 4] [µM] | IC50 [1, 5] [µM] | further results
CC[C@@H](C)Nc1nc(Cl)c(-c2cccc(N)c2)n(CC(=O)NCc2ccc(C(=N)N)cc2)c1=O [1526-16] | 0.04 | > 30 |  | 
N=C(N)c1ccc(CNC(=O)Cn2c(-c3ccccc3)c(Cl)nc(NC3CCCCCC3)c2=O)cc1 [1522-36] |  | > 30 | 1 | 
N=C(N)c1ccc(CNC(=O)Cn2c(-c3cccc(Br)c3)c(Cl)nc(NC3CCC3)c2=O)cc1 [1515-22] |  | > 30 | 4.2 | 
Nc1cccc(-c2c(Cl)nc(NC3CCC3)c(=O)n2CC(=O)NCCc2ccccc2)c1 [compound 89] |  |  |  | IC50 or % Inhibition TF-VIIa (30 µM) ([1]; % inhibition at 30 µM): 5%@30; IC50 or % Inhibition Factor Xa (30 µM) [2]: 5%@30
CC(C)Nc1nc(Cl)c(-c2ccc(Cl)nc2)n(CC(=O)NCc2ccc(C(=N)N)cc2F)c1=O [compound 74] |  |  | 3.25 | IC50 or % Inhibition Factor Xa (30 µM) [2]: 13%
COc1cccc(-c2c(Cl)nc(NC3CCC3)c(=O)n2CC(=O)NCc2ccc(C(=N)N)cc2)c1 [1515-17] | 4.4 | > 30 |  | 
C=CCNc1nc(Cl)c(-c2cccc(N)c2)n(CC(=O)NCc2ccc(C(=N)N)cc2)c1=O [1526-19] | 0.04 | > 30 |  | 
N=C(N)c1ccc(CNC(=O)Cn2c(-c3ccc(-c4ccccc4)cc3)c(Cl)nc(NCCc3cccnc3)c2=O)cc1 [Example 21] |  |  |  | IC50 or % Inhibition TF-VIIa (30 µM) ([1]; % inhibition at 30 µM): 8%@30; IC50 or % Inhibition Factor Xa (30 µM) [2]: 21%@30
N=C(N)c1ccc(CNC(=O)Cn2c(-c3cccc(N)c3)c(Cl)nc(NC3CCC3)c2=O)cc1 [1526-23] | 0.03 | > 30 |  | 
CC(C)C(C)Nc1nc(Cl)c(-c2ccccc2)n(CC(=O)NCc2ccc(C(=N)N)cc2)c1=O (stereo not drawn) [1522-15] | 0.54 | > 30 |  | 
N=C(N)c1ccc(CNC(=O)Cn2c(-c3ccc(C(F)(F)F)cc3)c(Cl)nc(NC3CCC3)c2=O)cc1 [1515-20] |  | > 30 |  | IC50 or % Inhibition TF-VIIa (30 µM) [1]: 32%
N=C(N)NCCCCNc1nc(Cl)c(-c2ccccc2)n(CC(=O)NCc2ccc(C(=N)N)cc2)c1=O [Example 49] |  |  | 0.57 | IC50 [2]: 28.9 µM
N=C(N)c1ccc(CNC(=O)Cn2c(-c3ccccc3)c(Cl)nc(NC3CCS(=O)(=O)C3)c2=O)cc1 (stereo not drawn) [1512-19] |  |  | 14.3 | IC50 or % Inhibition Factor Xa (30 µM) [2]: 3%

Continued, in another order:

IC50 [1, 3] [µM] | IC50 [2, 4] [µM] | IC50 [1, 5] [µM] | SMILES | further results
 | > 30 | 2.3 | N=C(N)c1ccc(CNC(=O)Cn2c(-c3cccc(F)c3)c(Cl)nc(NCCc3ccccc3)c2=O)cc1 [1515-33] | 
 |  | 1.2 | CC(C)CCNc1nc(Cl)c(-c2ccccc2)n(CC(=O)NCc2ccc(C(=N)N)cc2)c1=O [1517-40] | IC50 or % Inhibition Factor Xa (30 µM) [2]: 0%
 |  | 1 | Cc1cccc(-c2c(Cl)nc(NCCc3ccccc3)c(=O)n2CC(=O)NCc2ccc(C(=N)N)cc2)c1 [compound 81] | IC50 or % Inhibition Factor Xa (30 µM) [2]: 33%@30
12 | > 30 |  | N=C(N)c1ccc(CNC(=O)Cn2c(-c3ccccc3)c(Cl)nc(NCc3ccccc3C(F)(F)F)c2=O)cc1 [1507-15] | 
16 | > 30 |  | N=C(N)c1ccc(CNC(=O)Cn2c(-c3ccccc3)c(Cl)nc(NCc3cccc(Cl)c3)c2=O)cc1 [1507-38] | 
 |  | 5 | N=C(N)c1ccc(CNC(=O)Cn2c(Cc3ccccc3)cnc(NCCc3ccccc3)c2=O)cc1 [Example 2] | IC50 [2]: > 100 µM
1 | > 30 |  | N=C(N)c1ccc(CNC(=O)Cn2c(-c3ccccc3)c(Cl)nc(NCCNc3ncccc3C(F)(F)F)c2=O)cc1 [1522-38] | 
 |  | 1.47 | N=C(N)c1ccc(CNC(=O)Cn2c(-c3ccccc3)c(Cl)nc(NCCc3ccncc3)c2=O)cc1 [1471-13] | IC50 or % Inhibition Factor Xa (30 µM) [2]: 0%
 | > 30 | 3.03 | Cc1cccc(-c2cnc(NCCc3ccccc3)c(=O)n2CC(=O)NCc2ccc(C(=N)N)cc2)c1 [compound 84] | 
6.7 | > 30 |  | COc1cccc(CCNc2nc(Cl)c(-c3ccccc3)n(CC(=O)NCc3ccc(C(=N)N)cc3)c2=O)c1 [1507-12] | 
7.3 | > 30 |  | Cc1ccc(CCNc2nc(Cl)c(-c3ccccc3)n(CC(=O)NCc3ccc(C(=N)N)cc3)c2=O)cc1 [1507-45] | 
